The values that follow come from patent US9701630B2, “Difluorolactam compositions for EP4-mediated osteo related diseases and conditions” (Cayman Chemical Company, Inc., priority 2012, dated 2017).

The structures appear in SMILES notation.

The test system of experiment [1] is calvarial bone defect. Kind of experiment: Rat calvarial defect model (bone formation). The class given is in vivo. The following applies: female Sprague Dawley rats, in calcium phosphate cement/demineralized bone matrix, 3 μg/ml to 3 mg/ml, eight weeks; data in FIG. 1.
The target of experiment [2] is T1, rat EP4 receptor (Rattus norvegicus, UniProt P43114).
T1 construct: host or cells: cells seeded on the STEP plate
T1 sequence (P43114 whole entry): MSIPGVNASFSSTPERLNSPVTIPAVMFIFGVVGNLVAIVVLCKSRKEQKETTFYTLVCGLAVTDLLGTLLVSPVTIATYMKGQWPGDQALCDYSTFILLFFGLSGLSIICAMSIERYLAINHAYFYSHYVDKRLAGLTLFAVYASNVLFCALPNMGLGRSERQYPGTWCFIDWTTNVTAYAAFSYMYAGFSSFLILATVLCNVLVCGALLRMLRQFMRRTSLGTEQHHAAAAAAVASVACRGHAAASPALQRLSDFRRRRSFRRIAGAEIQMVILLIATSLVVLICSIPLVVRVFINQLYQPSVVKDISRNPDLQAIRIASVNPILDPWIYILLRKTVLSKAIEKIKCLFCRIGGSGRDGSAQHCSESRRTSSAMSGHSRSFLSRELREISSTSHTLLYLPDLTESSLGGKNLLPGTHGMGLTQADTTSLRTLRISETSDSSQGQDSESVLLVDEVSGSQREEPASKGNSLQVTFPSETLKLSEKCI
Kind of experiment: STEP plate cAMP level assay for EP4 agonist. The class given is cell-based. The note with it: cAMP readout, read-out: STEP cell functional assay EC50s cAMP/EP4. An excerpt:
Functional Cellular Assays (STEP Plate Format)
Procedure of cAMP Assay for EP2/EP4 Agonist
3. […] In addition each concentration had triplicates.
6. Aspirate the supernatant.
On the technique in general: Changes in cAMP serve as a functional read-out for many G protein-coupled receptors.

As for `CCC#CC[C@H](C)[C@H](O)/C=C/[C@H]1CC(F)(F)C(=O)N1CCCCCCC(=O)O` [Example 2C, 7-((R)-3,3-difluoro-5-((3S,4S,E)-3-hydroxy-4-methylnon-1-en-6-yn-1-yl)-2-oxopyrrolidin-1-yl)heptanoic acid], the “Healing of a calvarial bone defect (degree of repair)” value in experiment [1] is “Accelerated Healing”.

Turning to `COC(=O)c1ccc(CCCN2C(=O)C(F)(F)C[C@@H]2/C=C/[C@@H](O)[C@H](C)CCCc2ccccc2)s1` [Example 28E, methyl 5-(3-((R)-3,3-difluoro-5-((3S,4R,E)-3-hydroxy-4-methyl-7-phenylhept-1-en-1-yl)-2-oxopyrrolidin-1-yl)propyl)thiophene-2-carboxylate], the EC50 in experiment [2] came out at 50.8 nM.
